Assay results published in patent US20210308120A1, “Use of Amitriptyline for Blocking Brain Hemichannels and Method for Potentiating its Effect in Vivo” (THERANEXUS, priority 2015, published 2021).
Entries after “also recorded” stand apart in the source; their conditions may differ. Each block holds one compound with its values, some of them ahead of it.

What was measured:
[1] = target: T1, Cx43 hemichannels (Mus musculus, UniProt P23242); experiment: Hemichannel activity by ethidium bromide uptake in LPS-treated mouse cortical astrocyte cultures; type: cell-based; conditions: 24 hours; for HC activity (ethidium bromide uptake) after LPS-induced opening: LPS 1 μg/mL and mefloquine or MFA 10 μM; for Degree of Cx43 hemichannel inhibition, MFA compared with mefloquine: both 10 μM, LPS 1 μg/mL
T1 construct: Astrocyte cultures were prepared from cortex of rats and mice as previously described; endogenous in cells; host or cells: secondary cultures of mouse cortical astrocytes, LPS-treated
T1 sequence (P23242 whole entry): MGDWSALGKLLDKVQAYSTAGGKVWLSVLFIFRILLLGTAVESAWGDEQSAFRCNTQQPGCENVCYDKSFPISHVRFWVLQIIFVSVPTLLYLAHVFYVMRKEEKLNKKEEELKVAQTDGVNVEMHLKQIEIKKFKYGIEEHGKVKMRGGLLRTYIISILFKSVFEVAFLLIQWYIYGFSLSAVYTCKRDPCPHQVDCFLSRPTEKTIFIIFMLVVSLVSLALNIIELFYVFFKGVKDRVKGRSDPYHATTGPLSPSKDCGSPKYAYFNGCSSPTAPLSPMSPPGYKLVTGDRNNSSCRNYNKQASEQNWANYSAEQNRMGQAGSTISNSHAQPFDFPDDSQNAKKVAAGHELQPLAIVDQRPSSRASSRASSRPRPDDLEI
Description: Astrocyte cultures were prepared from cortex of rats and mice as previously described (Meme et al., 2006). Cells were seeded on polyornithine coated 35 mm dishes (5×10^5 cells/dish) or into 100-mm diameter plastic dishes at the density of 3×10^6 cells/dish. After 8-10 days, when cells grown into 35 mm in diameter plastic culture dishes have reached confluence, 1 μM of cytosine-arabinoside was added to the culture medium. In addition, when cells grown into 100 mm plastic culture dishes reached confluence, they were harvested with trypsin-EDTA. Then, cells were re-plated (2×10^5 cells per well), as secondary cultures, on glass coverslips placed inside 24-round-well plate. Finally, they were grown to confluence and cytosine-arabinoside was added. Medium was changed twice a week for all cells until the experiments were carried out. Hemichannel activity was evaluated in secondary cultures of cortical astrocytes by Ethidium Bromide (EtBr) uptake as already published (Orellana et al, 2011). 24 h before experiment, cells were pretreated or not with 1 μg/ml LPS known to open Cx43 HeC. The day of experiment, cells were first preincubated in HEPES buffer solution. Then, cells were exposed to 5 μM EtBr for 10 min at room temperature. Cells were then washed with the same buffer before fixation with 4% paraformaldehyde in PBS. Fixed cells were examined at 40× with a confocal laser-scanning microscope. Stacks of 10 consecutive confocal images taken at 0.49 μm intervals were acquired. For each experimental condition, 6 images were captured and then analyzed with Image J program (NIH software). LPS was added to mouse cortical astrocytic cultures during 24 hours to open Cx43 hemichannels and amitriptyline was also added during the same time to evaluate its action on hemichannel activity, quantified by cell uptake of ethidium bromide.

[2] = system: SN-CCI rats (neuropathic pain, hyperalgesia); experiment: Randall & Selitto test in SN-CCI rats, chronic 14-day administration; type: in vivo, rat; conditions: 14 days; for Potentiation of amitriptyline anti-hyperalgesic effect: combined with amitriptyline 12 mg/kg, mefloquine or MFA 0.5 mg/kg i.p. twice a day
Description: Data are the means±S.E.M. of n=8-14 rats.
Data are the means±S.E.M. of n=8-14 rats. *p<0.05, **p<0.01, ***p<0.001 as compared with “saline+saline” group at the same time, ≠p<0.05 as compared between amitriptyline groups, two-way ANOVA, Bonferroni test.
(§1) One week after their arrival, rats were anesthetized with sodium pentobarbital before exposing the common sciatic nerve. As described in Bennett's article, four chromic catgut (5-0) ligations were tied loosely proximally to the sciatic trifurcation (Bennett and Xie, 1988).
(§2) All behavioral assessments were conducted between 9 a.m. and 5 p.m. in a quiet room. An increasing pressure was applied to the right hind paw of SN-CCI (Sciatic Nerve-Chronic Constriction Injury) rat to evaluate hyperalgesia-like behavior (Viguier and al, 2013). Values correspond to the pressure threshold producing the paw withdrawal and then the vocalization of the rat.
Osmotic mini-pumps (Alzet, model 2ML2), delivering for the following 14 days amitriptyline or vehicle were subcutaneously implanted.
a) Rats were ligated on sciatic nerve and then tested with the Randall & Selitto test 14 days after surgery, to evaluate hyperalgesia quantified as pressure threshold. Neuropathic rats, characterized by a decrease of pressure threshold after surgery, were then treated during 14 days and tested by the Randall & Selitto test during this period.

[3] = system: SN-CCI rats (neuropathic pain, hyperalgesia); experiment: Randall & Selitto test in SN-CCI rats, repeated administration every 150 minutes; type: in vivo, rat; conditions: mefloquine 1 mg/kg with amitriptyline i.p. every 150 min; at 90 and 240 min
Description: as §1, §2

[4] = system: mice subjected to FST; experiment: Forced Swim Test (FST); type: in vivo, mouse; conditions: amitriptyline 12 mg/kg + mefloquine 1 mg/kg per os; 2nd 3-min period
Description: The FST is the most used rodent model for screening antidepressants (Porsolt et al, 1977). Mice were dropped individually in a glass cylinder (25 cm high, 9 cm diameter) filled with 10 cm 25° C. water. The experiment was recorded with a camcorder, placed in front of the glass cylinders. Video were scored at a later time by an experimenter blind to the treatments. The indices of depression-related behavior are the immobility time, the swimming time and the climbing time.
FST test evaluates the despair behavior which is commonly reversed by antidepressants. During FST, the swimming time of each mouse was measured on each 1-min period, on 1st and 2nd 3-min periods.

[5] = system: neuropathic mice (cuff model, allodynia); experiment: Mechanical allodynia, von Frey test in sciatic nerve cuff model; type: in vivo, mouse; conditions: for Synergy with amitriptyline in vivo: combined with amitriptyline (FIGS. 7 and 11), 0.5 mg/kg
Description: Paw withdrawal thresholds of mice treated with either amitriptyline 6 mg/kg alone (AMIT 6) or amitriptyline 12 mg/kg alone (AMIT 12) are also shown (D). FIG. 10 (E) represents area under curve analysis.
Area under curve analysis are shown (B).
Neuropathic pain was induced to adult male C57BL/6J mice (Charles River, L'Arbresle, France) by cuffing the main branch of the right sciatic nerve (For detailed description and video illustration: Yalcin et al. 2014, J Vis Exp 89:e51608). Surgeries were performed under ketamine (68 mg/kg)/xylazine (10 mg/kg) intraperitoneal (i.p.) anesthesia (Centravet, Tadden, France). The common branch of the right sciatic nerve was exposed and a cuff of PE-20 polyethylene tubing (Harvard Apparatus, Les Ulis, France) of standardized length (2 mm) was unilaterally inserted around it (Cuff group). The shaved skin was closed using suture.
Injections were done once a day during the 17 first days of treatment, in the afternoon. As a single dose per day was ineffective, treatment was then done twice a day, morning and afternoon, from the 8 last days of treatment.
Mechanical allodynia was tested using von Frey hairs and results were expressed in grams (For detailed description and video illustration: Yalcin et al. 2014, J Vis Exp 89:e51608). Tests were done during the morning, starting at least 2 hours after lights on. Mice were placed in clear Plexiglas boxes (7 cm×9 cm×7 cm) on an elevated mesh screen. Calibrated von Frey filaments (Bioseb, Vitrolles, France) were applied to the plantar surface of each hindpaw until they just bent, in a series of ascending forces up to the mechanical threshold. Filaments were tested five times per paw and the paw withdrawal threshold was defined as the lower of two consecutive filaments for which three or more withdrawals out of the five trials were observed.
Mice were subjected to sciatic nerve cuffing and then tested with the von Frey test to evaluate allodynia quantified as pressure threshold.
Mice were subjected to sciatic nerve cuffing and then tested with the von Frey test to evaluate allodynia quantified as pressure threshold. Neuropathic mice, characterized by a decrease of pressure threshold after surgery, were then treated during 25 days and tested by the von Frey test during this period.

[6] = Pharmacokinetics of amitriptyline/mefloquine in plasma and brain of mice (LC-MS); type: in vivo, mouse
Description: Data are presented as mean±SEM.
Adult male C57BL/6J mice (Charles River, L'Arbresle, France) were used. Mice were kept in collective cages for habituation to the facility for one week before experimental testing with food and water ad libitum. Mice were maintained on a light/dark cycle of 12 hours with light onset at 8h00 and with a controlled temperature of 21° C.±1° C.
Injections were done twice.
On day 18th of treatment, mice received the morning injection and samplings were done 2 hours after the injection. Mice were anesthetized just before sampling (ketamine 68 mg/kg, xylazine 10 mg/kg) and blood was collected by intracardiac puncture (Vacuette tubes, with lithium/heparin gel). The mouse was then decapitated, and the brain extracted and fast frozen in dry ice.
Vacuette tubes with blood were centrifugated (3000 rpm, 20 min), plasma recovered and stored at −80° C. until shipping in dry ice.

[7] = cited from earlier work
[8] = amitriptyline 12 mg/kg s.c. osmotic pump, mefloquine 0.5 mg/kg i.p. twice a day, vs saline

HC activity (ethidium bromide uptake) after LPS-induced opening [1]: reversed this effect
Degree of Cx43 hemichannel inhibition, MFA compared with mefloquine [1]: less efficient
Concentrations in blood and brain tissue ([6]; amitriptyline 6, 12 mg/kg, mefloquine 0.1, 0.3, 1 mg/kg i.p., 18 days, 2 hours after injection): dose-dependent
Effect on concentrations of amitriptyline in blood and brain ([6]; even for the highest doses of mefloquine): does not induce an increase
Mefloquine concentrations in plasma and brain at optimal in vivo potentiation ([6]; mice, FIG. 12): micromolar scale
Compound: O[C@H](c1cc(C(F)(F)F)nc2c(C(F)(F)F)cccc12)[C@@H]1CCCCN1 (relative stereo) [mefloquine, (R*, S*)-(±)-α-2-piperidinyl-2,8-bis (trifluoromethyl)-4-quinolinemethanol]
Paw withdrawal threshold (pressure) [2, 8]: did not present significant effect on both responses
Vocalization threshold (pressure) [2, 8]: did not present significant effect on both responses
Potentiation of amitriptyline anti-hyperalgesic effect [2]: significantly potentiated amitriptyline hyperalgesic profile from day 6 to day 14; also recorded: significantly potentiated amitriptyline hyperalgesic at day 14
Potentiation of amitriptyline anti-hyperalgesic effect [3]: significantly improved the anti-hyperalgesic effect of amitriptyline
Swimming time [4]: able to potentiate amitriptyline 12 mg/kg
Potentiation of amitriptyline antiallodynic effect ([5]; mefloquine 0.1, 0.33, 1 mg/kg i.p. with amitriptyline 6 mg/kg, 25 days): significantly potentiated amitriptyline 6 mg/kg
Antiallodynic effect of combination ([5]; mefloquine 0.1 and 0.33 mg/kg with amitriptyline 6 mg/kg): antiallodynic effect similar to amitriptyline 12 mg/kg

Compound: O=C(O)c1cc(C(F)(F)F)nc2c(C(F)(F)F)cccc12 [2,8-bistrifluoromethyl-4-quinoline carboxylic acid]
Time to maximum plasma concentrations ([7]; in vivo): 2 weeks
Maximum plasma concentrations, higher than those of mefloquine ([7]; relative to mefloquine): about 50%

HC activity (ethidium bromide uptake) after LPS-induced opening [1]: reversed this effect
Degree of Cx43 hemichannel inhibition, MFA compared with mefloquine [1]: presented a higher inhibitor effect
Compound: Cc1ccc(Cl)c(Nc2ccccc2C(=O)O)c1Cl [MFA, meclofenamic acid]
Potentiation of amitriptyline anti-hyperalgesic effect [2]: did not present any improved effect of amitriptyline
Synergy with amitriptyline in vivo [5]: not observed

Compound: O=C(O)c1cccnc1Nc1cccc(C(F)(F)F)c1 [niflumic acid]
Synergy with amitriptyline in vivo [5]: not observed

Compound: hydroxymefloquine
Presence as metabolite ([7]; in vivo): minute quantities only
